From patent US8722849B2, “Polypeptides” (Novo Nordisk A/S, priority 2011, dated 2014)
Converted amounts (≈) assume the structure as drawn. Read-outs that look alike come from different tables or passages of the source. Starred links: 1 amine or outer side, 2 acyl side, 3 side chain; linkers in the order of their positions; H or OH if unused. Positions of bridges follow the written chain, without caps; N, C: chain ends. Residues, ends and D or L forms follow the SMILES beside them. *: point of attachment. C20 diacid = O=C(O)CCCCCCCCCCCCCCCCCCC(=O)*; γGlu = O=C(O)[C@H](CCC(=O)[*:2])N[*:1]

Key:
[1] = molecular target: T1, human amylin receptor (amylin 3(a) receptor: human calcitonin receptor + RAMP-3) (Homo sapiens, UniProt O60896+P30988); assay: Assay (II)a functional CRE-luciferase assay, human amylin receptor; type: cell-based
T1 construct: expressed in transfected cells; host or cells: BHK570
T1 sequence (P30988 25-474): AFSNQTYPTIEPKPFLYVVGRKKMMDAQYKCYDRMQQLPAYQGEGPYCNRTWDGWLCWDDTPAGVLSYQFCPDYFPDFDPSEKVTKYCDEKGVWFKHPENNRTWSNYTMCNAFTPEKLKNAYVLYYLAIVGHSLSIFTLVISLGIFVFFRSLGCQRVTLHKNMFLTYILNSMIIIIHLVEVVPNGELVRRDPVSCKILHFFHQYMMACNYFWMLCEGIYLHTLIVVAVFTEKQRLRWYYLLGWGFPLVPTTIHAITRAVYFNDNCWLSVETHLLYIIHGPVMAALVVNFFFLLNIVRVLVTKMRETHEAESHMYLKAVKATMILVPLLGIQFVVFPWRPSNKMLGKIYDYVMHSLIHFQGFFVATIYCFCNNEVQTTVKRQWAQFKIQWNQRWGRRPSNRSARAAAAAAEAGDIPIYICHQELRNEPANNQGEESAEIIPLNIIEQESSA
T1 sequence (O60896 24-148 partner): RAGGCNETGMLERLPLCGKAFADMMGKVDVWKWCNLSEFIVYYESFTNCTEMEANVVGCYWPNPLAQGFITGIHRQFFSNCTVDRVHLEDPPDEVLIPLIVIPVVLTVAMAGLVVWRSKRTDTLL

[2] = molecular target: T2, human calcitonin receptor (Homo sapiens, UniProt P30988); assay: Assay (II)a functional CRE-luciferase assay, human calcitonin receptor; type: cell-based
T2 construct: expressed in transfected cells; host or cells: BHK570
T2 sequence (P30988 25-474): T1 sequence (P30988 25-474)

[3] = Assay (III) ThT fibrillation assay for physical stability; type: physicochemical; settings: ThT fibrillation assay
How it was run: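 Freshly prepared formulations, pH-adjusted, with 1 μM ThT; four or eight replicates incubated at 37 °C under 960 rpm orbital shaking. Fluorescence (ex 444/em 485 nm) read every 20 min; […]. Peptide concentration measured by RP-HPLC before and after the run.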

[4] = Assay (IV) determination of solubility; type: physicochemical
How it was run: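 Solubility was profiled across pH 3.0–8.0 after 18 hours at room temperature: a ~500 nmol/ml aqueous polypeptide solution was diluted 1:1 into 100 mM glycylglycine or bistrispropane buffers. After centrifugation, HPLC gave the dissolved concentration.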

[5] = Table 2, BHK amylin 3(a)-receptor/CRE-luc cells
[6] = Table 7, human calcitonin (CTa) receptor
[7] = bistrispropane buffer, pH 6, pH 6.0, read-out: Solubility pH 6.0
[8] = bistrispropane buffer, pH 6.5, pH 6.5, read-out: Solubility pH 6.5
[9] = bistrispropane buffer, pH 7, pH 7.0, read-out: Solubility pH 7.0
[10] = bistrispropane buffer, pH 7.5, pH 7.5, read-out: Solubility pH 7.5
[11] = bistrispropane buffer, pH 8, pH 8.0, read-out: Solubility pH 8.0
[12] = glycylglycine buffer, pH 3, pH 3.0, read-out: Solubility pH 3.0
[13] = glycylglycine buffer, pH 4, pH 4.0, 18 hours at room temperature, Table 2, read-out: Solubility pH 4.0
[14] = glycylglycine buffer, pH 4, pH 4.0, read-out: Solubility pH 4.0
[15] = glycylglycine buffer, pH 5, pH 5.0, read-out: Solubility pH 5.0
[16] = Table 11, read-out: CTa receptor human EC50

SMILES: CC[C@H](C)[C@H](NC(=O)[C@@H]1CCCN1C(=O)CNC(=O)[C@H](Cc1ccccc1)NC(=O)[C@H](CC(N)=O)NC(=O)[C@H](CC(N)=O)NC(=O)[C@H](CO)NC(=O)[C@H](CO)NC(=O)[C@H](Cc1c[nH]cn1)NC(=O)[C@H](Cc1c[nH]cn1)NC(=O)[C@H](CC(C)C)NC(=O)[C@H](Cc1ccccc1)NC(=O)[C@H](CCC(=O)O)NC(=O)[C@H](C)NC(=O)[C@H](CC(C)C)NC(=O)[C@H](CCCNC(=N)N)NC(=O)[C@H](CCC(N)=O)NC(=O)[C@@H](NC(=O)[C@H](C)NC(=O)[C@@H]1CSSC[C@H](NC(=O)[C@H](CCCCN)NC(=O)CC[C@H](NC(=O)CCCCCCCCCCCCCCCCCCC(=O)O)C(=O)O)C(=O)N[C@@H](CC(N)=O)C(=O)N[C@@H]([C@@H](C)O)C(=O)N[C@@H](C)C(=O)N[C@@H]([C@@H](C)O)C(=O)N1)[C@@H](C)O)C(=O)N[C@@H](CC(C)C)C(=O)N1CCC[C@H]1C(=O)N1CCC[C@H]1C(=O)N[C@H](C(=O)N[C@@H](CC(N)=O)C(=O)N[C@H](C(=O)NCC(=O)N[C@@H](Cc1c[nH]cn1)C(=O)N[C@@H](CC(N)=O)C(=O)N[C@H](C(=O)N[C@@H](Cc1ccc(O)cc1)C(N)=O)[C@@H](C)O)C(C)C)[C@@H](C)O [Example 115, N-alpha-[(S)-4-Carboxy-4-(19-carboxynonadecanoylamino)butyryl]-[Glu14,His17,His34]-pramlintide] ({C20 diacid-γGlu}-KCNTATCATQRLAEFLHHSSNNFGPILPPTNVGHNTY-NH2; disulfide 2-7 (inferred); C-terminus assumed)
- EC50 [1, 5]: 0.129 nM
- EC50 [2, 6]: 0.115 nM
- ThT pH 4.0 lag time [3]: >45 h
- ThT pH 4.0 lag time (h) [3]: >45 h
- solubility at 18 h [4, 7]: > 200 µM
- solubility at 18 h [4, 8]: 73 µM (≈ 329 µg/mL)
- solubility at 18 h [4, 9]: 22 µM (≈ 99.1 µg/mL)
- solubility at 18 h [4, 10]: 46 µM (≈ 207 µg/mL)
- solubility at 18 h [4, 11]: 115 µM (≈ 518 µg/mL)
- solubility at 18 h [4, 12]: > 200 µM
- solubility at 18 h [4, 13]: > 200 µM
- solubility at 18 h [4, 14]: > 200 µM
- solubility at 18 h [4, 15]: > 200 µM

SMILES: CC[C@H](C)[C@H](NC(=O)[C@@H]1CCCN1C(=O)CNC(=O)[C@H](Cc1ccccc1)NC(=O)[C@H](CC(N)=O)NC(=O)[C@H](CC(N)=O)NC(=O)[C@H](CO)NC(=O)[C@H](CO)NC(=O)[C@H](Cc1c[nH]cn1)NC(=O)[C@H](Cc1c[nH]cn1)NC(=O)[C@H](CC(C)C)NC(=O)[C@H](Cc1ccccc1)NC(=O)[C@H](CCC(=O)O)NC(=O)[C@H](C)NC(=O)[C@H](CC(C)C)NC(=O)[C@H](CCCNC(=N)N)NC(=O)[C@H](CCC(N)=O)NC(=O)[C@@H](NC(=O)[C@H](C)NC(=O)[C@@H]1CSSC[C@H](NC(=O)[C@H](CCCCN)NC(=O)CC[C@H](NC(=O)CCCCCCCCCCCCCCCCCCC(=O)O)C(=O)O)C(=O)N[C@@H](CC(N)=O)C(=O)N[C@@H]([C@@H](C)O)C(=O)N[C@@H](C)C(=O)N[C@@H]([C@@H](C)O)C(=O)N1)[C@@H](C)O)C(=O)N[C@@H](CC(C)C)C(=O)N1CCC[C@H]1C(=O)N1CCC[C@H]1C(=O)N[C@H](C(=O)N[C@@H](CC(N)=O)C(=O)N[C@@H](Cc1c[nH]cn1)C(=O)NCC(=O)N[C@@H](CO)C(=O)N[C@@H](CC(N)=O)C(=O)N[C@H](C(=O)N[C@@H](Cc1ccc(O)cc1)C(N)=O)[C@@H](C)O)[C@@H](C)O [Example 116, N-alpha-[(S)-4-Carboxy-4-(19-carboxynonadecanoylamino)butyryl]-[Glu14,His17,His32]-pramlintide] ({C20 diacid-γGlu}-KCNTATCATQRLAEFLHHSSNNFGPILPPTNHGSNTY-NH2; disulfide 2-7 (inferred); C-terminus assumed)
- EC50 [1, 5]: 0.487 nM
- EC50 [2, 6]: 0.124 nM
- ThT pH 4.0 lag time [3]: >45 h
- ThT pH 4.0 lag time (h) [3]: >45 h
- solubility at 18 h [4, 7]: > 200 µM
- solubility at 18 h [4, 8]: 120 µM (≈ 539 µg/mL)
- solubility at 18 h [4, 9]: 44 µM (≈ 198 µg/mL)
- solubility at 18 h [4, 10]: 79 µM (≈ 355 µg/mL)
- solubility at 18 h [4, 11]: 173 µM (≈ 777 µg/mL)
- solubility at 18 h [4, 12]: > 200 µM
- solubility at 18 h [4, 13]: > 200 µM
- solubility at 18 h [4, 14]: > 200 µM
- solubility at 18 h [4, 15]: > 200 µM

SMILES: CC[C@H](C)[C@H](NC(=O)[C@@H]1CCCN1C(=O)CNC(=O)[C@H](Cc1ccccc1)NC(=O)[C@H](CC(N)=O)NC(=O)[C@H](CC(N)=O)NC(=O)[C@H](CO)NC(=O)[C@H](CO)NC(=O)[C@H](Cc1c[nH]cn1)NC(=O)[C@@H](NC(=O)[C@H](CC(C)C)NC(=O)[C@H](Cc1ccccc1)NC(=O)[C@H](CC(N)=O)NC(=O)[C@H](C)NC(=O)[C@H](CC(C)C)NC(=O)[C@H](CCCNC(=N)N)NC(=O)[C@H](CCC(N)=O)NC(=O)[C@@H](NC(=O)[C@H](C)NC(=O)[C@@H]1CSSC[C@H](NC(=O)[C@H](CCC(=O)O)NC(=O)[C@H](CCCNC(=N)N)NC(=O)[C@H](CCC(=O)O)NC(=O)[C@H](CCC(=O)O)NC(=O)CCCCCCCCCCCCCCCCCCC(=O)O)C(=O)N[C@@H](CC(N)=O)C(=O)N[C@@H]([C@@H](C)O)C(=O)N[C@@H](C)C(=O)N[C@@H]([C@@H](C)O)C(=O)N1)[C@@H](C)O)C(C)C)C(=O)N[C@@H](CC(C)C)C(=O)N1CCC[C@H]1C(=O)N1CCC[C@H]1C(=O)N[C@H](C(=O)N[C@@H](CC(N)=O)C(=O)N[C@H](C(=O)NCC(=O)N[C@@H](CO)C(=O)N[C@@H](CC(N)=O)C(=O)N[C@H](C(=O)N1CCC[C@H]1C(N)=O)[C@@H](C)O)C(C)C)[C@@H](C)O [Example 121, N-alpha-(19-carboxynonadecanoyl)-Glu-Glu-Arg-[Glu1,Pro37]-pramlintide] ({C20 diacid}-EERECNTATCATQRLANFLVHSSNNFGPILPPTNVGSNTP-NH2; disulfide 5-10 (inferred); C-terminus assumed)
- EC50 ([1]; Table 11): 0.045 nM
- EC50 [2, 16]: 0.0615 nM
- ThT pH 4.0 lag time (h) [3]: 0.3 h
- solubility at 18 h [4, 7]: 155 µM (≈ 717 µg/mL)
- solubility at 18 h [4, 8]: 127 µM (≈ 587 µg/mL)
- solubility at 18 h [4, 9]: 54 µM (≈ 250 µg/mL)
- solubility at 18 h [4, 10]: 157 µM (≈ 726 µg/mL)
- solubility at 18 h [4, 11]: 117 µM (≈ 541 µg/mL)
- solubility at 18 h [4, 12]: > 200 µM
- solubility at 18 h [4, 14]: > 200 µM
- solubility at 18 h [4, 15]: > 200 µM

SMILES: CC[C@H](C)[C@H](NC(=O)[C@@H]1CCCN1C(=O)CNC(=O)[C@H](Cc1ccccc1)NC(=O)[C@H](CC(N)=O)NC(=O)[C@H](CC(N)=O)NC(=O)[C@H](CO)NC(=O)[C@H](CO)NC(=O)[C@H](Cc1c[nH]cn1)NC(=O)[C@@H](NC(=O)[C@H](CC(C)C)NC(=O)[C@H](Cc1ccccc1)NC(=O)[C@H](CC(N)=O)NC(=O)[C@H](C)NC(=O)[C@H](CC(C)C)NC(=O)[C@H](CCCNC(=N)N)NC(=O)[C@H](CCC(N)=O)NC(=O)[C@@H](NC(=O)[C@H](C)NC(=O)[C@@H]1CSSC[C@H](NC(=O)[C@H](CCC(=O)O)NC(=O)[C@H](CCCNC(=N)N)NC(=O)[C@H](CCC(=O)O)NC(=O)CC[C@H](NC(=O)CCCCCCCCCCCCCCCCCCC(=O)O)C(=O)O)C(=O)N[C@@H](CC(N)=O)C(=O)N[C@@H]([C@@H](C)O)C(=O)N[C@@H](C)C(=O)N[C@@H]([C@@H](C)O)C(=O)N1)[C@@H](C)O)C(C)C)C(=O)N[C@@H](CC(C)C)C(=O)N1CCC[C@H]1C(=O)N1CCC[C@H]1C(=O)N[C@H](C(=O)N[C@@H](CC(N)=O)C(=O)N[C@H](C(=O)NCC(=O)N[C@@H](CO)C(=O)N[C@@H](CC(N)=O)C(=O)N[C@H](C(=O)N1CCC[C@H]1C(N)=O)[C@@H](C)O)C(C)C)[C@@H](C)O [Example 122, N-alpha-[(S)-4-Carboxy-4-(19-carboxynonadecanoylamino)butyryl]-Glu-Arg-[Glu1,Pro37]-pramlintide] ({C20 diacid-γGlu}-ERECNTATCATQRLANFLVHSSNNFGPILPPTNVGSNTP-NH2; disulfide 4-9 (inferred); C-terminus assumed)
- EC50 ([1]; Table 6, human amylin receptor): 0.063 nM
- EC50 [2, 16]: 0.061 nM
- ThT pH 4.0 lag time (h) [3]: 0.7 h
- solubility at 18 h [4, 7]: > 200 µM
- solubility at 18 h [4, 8]: > 200 µM
- solubility at 18 h [4, 9]: > 200 µM
- solubility at 18 h [4, 10]: > 200 µM
- solubility at 18 h [4, 11]: > 200 µM
- solubility at 18 h [4, 12]: > 200 µM
- solubility at 18 h [4, 14]: > 200 µM
- solubility at 18 h [4, 15]: > 200 µM
